Experimental data from patent US7321027B2, “Small technetium-99m and rhenium labeled agents and methods for imaging tumors” (President and Fellows of Harvard College, priority 2000, dated 2008).

Columns and labels:
[1] = test system: B16/F0 cells; test: Tumor-cell uptake in the presence of DTG; assay type: cell-based, murine; details: DTG 90 μM, 30 min prior, 37° C.
From the text: J. Labelled Compd. Radiopharm. 1994, 35, 242-244; Vilner, B. J.; John, C. S.; Bowen, W. D. Sigma-I and Sigma-2 Receptors Are Expressed in a Wide Variety of Human and Rodent Tumor Cell Lines. Cancer Res. 1995, 55, 408-413; and John, C. S.; Vilner, B. J.; Gulden, M. E.; Efange, S. M. N.; Langason, R. B.; Moody, T. W.; Bowen, W. D. Synthesis and Pharmacological Characterization of 4-[^125I]-N-(N-Benzylpiperidin-4-yl)-4-iodobenzamide: A High Affinity σ Receptor Ligand for Potential Imaging of Breast Cancer. […] Pre-incubation of the tumor cells with DTG (90 μM), 30 min prior to the uptake experiments with the ^99mTc-complexes, yields a lower tumor-cell uptake for complexes Tc-(Compound A) (29% less), Tc-(Compound C) (33% less), and Tc-(Compound D) (32% less) at 37° C. (FIG. 4). Additional dose-response experiments conducted with intact B16/F0 cells at 37° C. with Tc-(Compound C) and DTG as the inhibitor (FIG. 3) show a DTG concentration-dependent decrease in the uptake of the complex.
The effect of the inhibitor DTG on cell uptake of these complexes was studied by addition of the inhibitor at various concentrations to the cell suspension 30 min prior to addition of the ^99mTc-complexes. Fresh DTG stock solutions were made by dissolving DTG (3.0 mg, 12.5 μmol) in 0.38 mL PBS and 0.12 mL hydrochloric acid (0.1 N) and subjecting the mixture to ultrasound until a clear solution was obtained, followed by the addition of 0.50 mL FBS to produce a neutral solution at pH 7.4. The stock solutions were diluted by an appropriate amount of S-MEM, and aliquots between 5 μL and 25 μL were added to the cell suspension such that the final concentration of DTG was between 0.02 μM and 120 μM in a total cell suspension volume of 350 μL.

[2] = test system: B16/F0 murine melanoma; test: In-vivo tumor uptake and biodistribution; design: species or system C57B16 mice; details: mouse, in vivo
Protocol: In-Vivo Tumor Uptake. To study the tumor uptake of ^99mTc-complexes, Tc-(Compound A-D and J-K), in vivo, biodistribution experiments at 1 h and 6 h after their administration were carried out in C57B16 mice with palpable B16 melanoma nodules. The biodistribution data including melanoma/nontumor (M/NT) ratios for selected organs are summarized in Table 4 and 5 as percentage injected dose per gram ([…]).
Animal Studies. All animal experiments were performed in compliance with the Principles of Laboratory Animal Care (NIH publication #85-23, revised 1985). Biodistribution studies and tumor-uptake measurements were performed in C57B16 mice (15 to 20 g) bearing the B16/F0 murine melanoma on the hind limb. See for example the studies described in, which are hereby incorporated by reference, Brandau, W.; Niehoff, T.; Pulawski, P.; Jonas, M.; Dutschka, K.; Sciuk, J.; Coenen, H. H.; Schober, O. Structure Distribution Relationship of Iodine-123-Iodobenzamides as Tracers for the Detection of Melanotic Melanoma. J. Nucl. Med. 1996, 37, 1865-1871; Mohanmmed, A.; Nicholl, C.; Titsch, U.; Eisenhut, M. Radiojodinated N-(Alkylaminoalkyl)-Substituted 4-Methoxy-, 4-Hydroxy-, and 4-Aminobenzamides: Biological Investigations for the Improvement of Melanoma-Imaging Agents. Nucl. Med. Biol. 1997, 24, 373-380; Titsch, U.; Mohammed, A.; Wagner, S.; Oberdorfer, F.; Eisenhut, M. Syntheses of N-(2-Diethylaminoethyl)benzamides Suitable for ^99mTc Complexation. J. Labelled Compd. Radiopharm. 1997, 40, 416-418; Dittmann, H.; Coenen, H. H.; Zölzer, F.; Dutschka, K.; Brandau, W.; Streffer, C. In Vitro Studies on the Cellular Uptake of Melanoma Imaging Aminoalkyl-iodobenzamide Derivatives (ABA). Nucl. Med. Biol. 1999, 26, 51-56; and Michelot, J. M.; Moreau, M. F. C.; Veyre, A. J.; Bonafous, J. F.; Bacin, F. J.; Madelmont, J. C.; Bussiere, F.; Souteyrand, P. A.; Mauclaire, L. P.; Chossat, F. M.; Papon, J. M.; Labarre, P. G.; Kauffmann, Ph.; Plagne, R. J. Phase II Scintigraphic Clinical Trial of Malignant Melanoma and Metastases with Iodine-123-N-(2-Diethylaminoethyl 4-Iodobenzamide). J. Nucl. Med. 1993, 34, 1260-1266. The tumor cells (B16/F0), obtained from ATCC, were washed with PBS and transplanted subcutaneously on the left hind flank by an inoculation of 0.5×10^6 cells (0.1 mL). Ten to 14 days later the animals developed palpable tumor nodules 3 to 5 mm in diameter. The biodistribution studies were carried out by tail-vein injection of 25 to 30 μCi (0.05 to 0.1 mL) of the ^99mTc-labeled complexes Tc-(Compound A-D, H, J, K or M). At the designated time after tail-vein administration, the animals were weighed and sacrificed. The organs and tumors were harvested and, when appropriate, blotted dry, weighed, and counted in a gamma counter along with technetium-99m standards of the injected dose. The results are expressed as % ID/g tissue (Table 4 and 5)

mel/lung ratio [2]	Compound	lower tumor-cell uptake after pre-incubation with DTG [1]
–	CCN(CC)CCN1CC[S][99Tc]2(=[O])[S]CC[N]2C(=O)C1 (centres unmarked) [Tc-(Compound A)]	29%
2.1	CCCCN(CCCC)CCN1CC[S][99Tc]2(=[O])[S]CC[N]2C(=O)C1 (centres unmarked) [Tc-(Compound B)]	–
